Results on 21 compounds are retold here after patent US20230348424A1, “HETEROCYCLIC COMPOUNDS AND METHODS OF USE” (Schrödinger, Inc., priority 2022, published 2023).

Assay [1] deals with SOS1:KRAS (G12C) interaction (Homo sapiens (Human), UniProt Q07889). The assay is described as follows: SOS1 KRas(G12C) FRET Assay. Type of assay: binding. Particulars: 0.5 nM His10-SOS1 (res. 564-1049), 2.5 nM GST-KRAS G12C (res. 1-169), 2 hrs at RT. The essentials: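 GST-KRAS G12C (res. 1-169) at 2.5 nM and His10-SOS1 (res. 564-1049) at 0.5 nM, final, in PBS with 0.1% BSA, 5 mM MgCl2, 100 mM KF, 5 mM DTT and 0.5% DMSO. After 2 h at RT, FRET read at 665/615 nm and normalized to DMSO and no-SOS1 controls. IC50 by non-linear regression.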
Chain of SOS1:KRAS (G12C) interaction (Q07889 564-1049, stated change not applied): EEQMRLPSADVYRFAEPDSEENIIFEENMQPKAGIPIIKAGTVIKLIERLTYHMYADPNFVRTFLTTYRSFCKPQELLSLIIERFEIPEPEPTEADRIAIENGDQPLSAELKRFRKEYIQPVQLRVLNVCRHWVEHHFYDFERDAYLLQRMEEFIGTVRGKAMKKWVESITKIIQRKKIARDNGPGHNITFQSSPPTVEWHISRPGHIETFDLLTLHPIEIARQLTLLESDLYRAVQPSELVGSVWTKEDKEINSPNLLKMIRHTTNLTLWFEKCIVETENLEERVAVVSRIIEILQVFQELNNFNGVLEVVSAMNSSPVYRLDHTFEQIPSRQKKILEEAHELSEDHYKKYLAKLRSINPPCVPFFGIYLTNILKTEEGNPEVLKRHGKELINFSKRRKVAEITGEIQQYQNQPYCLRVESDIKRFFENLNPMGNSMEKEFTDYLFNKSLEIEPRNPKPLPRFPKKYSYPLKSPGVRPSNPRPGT

In another assay the target is human SOS1 (Homo sapiens (Human), UniProt Q07889). The assay is described as follows: Surface Plasmon Resonance (SPR) SOS1 Binding Assay. The note with it: biotinylated SOS1 (res. 564-1049), Biacore 8K, 25° C., kinetic or steady state fit, 1:1 binding; read-out: hSOS1 KD. An outline of the steps: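 Biotinylated Avi-tagged human SOS1 (res. 564-1049) captured on streptavidin chip (~3,000 RU); compounds injected 60 s, dissociation 600 s, at 25° C in Tris pH 8.0 buffer with 5% DMSO. Reference- and blank-subtracted; KD from kinetic or steady-state 1:1 binding fit.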
Chain of human SOS1 (Q07889 564-1049): as the sequence (Q07889 564-1049, stated change not applied) above
(In general: In SPR one partner is held on a chip, and binding of the other changes the refractive index at the surface.)

In general, IC50 refers to the concentration that inhibits the measured activity by half. Read a low IC50 as greater potency in that assay. The term Kd denotes the concentration at which binding is half-saturated. In assay [1], `Cc1c([C@@H](C)NC(=O)c2cn(C3CCOCC3)c(=O)cc2N[C@H]2CCN(C)C2)cccc1C(F)(F)F` [Example 4, N-((R)-1-(2-methyl-3-(trifluoromethyl)phenyl)ethyl)-4-(((S)-1-methylpyrrolidin-3-yl)amino)-6-oxo-1-(tetrahydro-2H-pyran-4-yl)-1,6-dihydropyridine-3-carboxamide] gave an IC50 of 0.0459 µM. Besides, the Kd at human SOS1 was 0.016 µM.

`C[C@@H](NC(=O)c1cn([C@H]2CCC2(F)F)c(=O)cc1NCC1(F)CN(C)C1)c1cccc(C(F)F)c1F` [Example 146, 1-((S)-2,2-difluorocyclobutyl)-N-((R)-1-(3-(difluoromethyl)-2-fluorophenyl)ethyl)-4-(((3-fluoro-1-methylazetidin-3-yl)methyl)amino)-6-oxo-1,6-dihydropyridine-3-carboxamide] showed an IC50 in assay [1] of 0.0054 µM. The Kd on human SOS1 was found to be 0.009 µM.

In the case of `C[C@@H](NC(=O)c1cn(C2(C(F)F)CC2)c(=O)cc1N[C@H]1CN2CCC1CC2)c1cccc(C(F)F)c1F` [Example 83, N-((R)-1-(3-(difluoromethyl)-2-fluorophenyl)ethyl)-1-(1-(difluoromethyl)cyclopropyl)-6-oxo-4-(((R)-quinuclidin-3-yl)amino)-1,6-dihydropyridine-3-carboxamide], the IC50 in assay [1] came out at 0.0257 µM. Moreover, on human SOS1, the Kd stood at 0.02 µM.

In turn, `C[C@@H](NC(=O)c1cn(C2(C(F)F)CC2)c(=O)cc1N[C@H](C)c1cncn1C)c1cccc(C(F)F)c1F` [Example 88, N-((R)-1-(3-(difluoromethyl)-2-fluorophenyl)ethyl)-1(1-(difluoromethyl)cyclopropyl)-4(((R)-1-(1-methyl-1H-imidazol-5-yl)ethyl)amino)-6-oxo-1,6-dihydropyridine-3-carboxamide] yielded an IC50 in assay [1] of 0.0873 µM. Also, the Kd at human SOS1 is 0.096 µM.

Consider `C[C@@H](NC(=O)c1cn(C2CCC(F)(F)CC2)c(=O)cc1N[C@H]1[C@@H]2CN(C)C[C@@H]21)c1cccc(C(F)F)c1F` [Example 123, 1-(4,4-difluorocyclohexyl)-N-((R)-1-(3-(difluoromethyl)-2-fluorophenyl)ethyl)-4-(((1R,5S,6s)-3-methyl-3-azabicyclo[3.1.0]hexan-6-yl)amino)-6-oxo-1,6-dihydropyridine-3-carboxamide], for which half-maximal inhibition in assay [1] (IC50) was put at 0.0231 µM. The Kd at human SOS1 came to 0.015 µM.

In assay [1], `Cc1c([C@@H](C)NC(=O)c2cn(C3CCOCC3)c(=O)cc2NCc2cncn2C)cccc1C(F)(F)F` [Example 10, (R)-4-(((1-methyl-1H-imidazol-5-yl)methyl)amino)-N-(1-(2-methyl-3-(trifluoromethyl)phenyl)ethyl)-6-oxo-1-(tetrahydro-2H-pyran-4-yl)-1,6-dihydropyridine-3-carboxamide] had an IC50 of 0.073 µM. In addition, at human SOS1, the Kd was 0.074 µM.

For the compound `C[C@@H](NC(=O)c1cn([C@]2(C)CCOC2)c(=O)cc1N[C@H]1[C@@H]2CN(C)C[C@@H]21)c1cccc(C(F)F)c1F` [Example 152, N-((R)-1-(3-(difluoromethyl)-2-fluorophenyl)ethyl)-4-(((1R,5S,6s)-3-methyl-3-azabicyclo[3.1.0]hexan-6-yl)amino)-1-((R)-3-methyltetrahydrofuran-3-yl)-6-oxo-1,6-dihydropyridine-3-carboxamide], half-maximal inhibition in assay [1] (IC50) was put at 0.0074 µM. For the same compound, on human SOS1, the equilibrium dissociation constant (Kd) was determined as 0.004 µM.

For `C[C@@H](NC(=O)c1cn(C23CC(C2)C3)c(=O)cc1N[C@H]1[C@@H]2CN(C)C[C@@H]21)c1cccc(C(F)F)c1F` [Example 90, 1-(bicyclo[1.1.1]pentan-1-yl)-N-((R)-1-(3-(difluoromethyl)-2-fluorophenyl)ethyl)-4-(((1R,5S,6s)-3-methyl-3-azabicyclo[3.1.0]hexan-6-yl)amino)-6-oxo-1,6-dihydropyridine-3-carboxamide], in assay [1], the IC50 turned out to be 0.0134 µM. Further, the Kd on human SOS1 turned out to be 0.009 µM.

As for `CO[C@H]1CN(C)CC[C@@H]1Nc1cc(=O)n(C2CCOCC2)cc1C(=O)N[C@H](C)c1cccc(C(F)(F)F)c1C` (single isomer, unassigned) [Example 25], the midpoint of inhibition in assay [1], the IC50, lay at 0.0713 µM. On human SOS1, the Kd turned out to be 0.045 µM.

In assay [1], `C[C@@H](NC(=O)c1cn([C@@H]2C[C@H]2C(F)(F)F)c(=O)cc1N[C@H]1[C@@H]2CN(C)C[C@@H]21)c1cccc(C(F)F)c1F` (single isomer, unassigned) [Example 112] came in with an IC50 of 0.0136 µM. On human SOS1, the Kd was 0.006 µM.

As for `C[C@@H](NC(=O)c1cn(C2CCOC(C)(C)C2)c(=O)cc1N[C@H]1[C@@H]2CN(C)C[C@@H]21)c1cccc(C(F)F)c1F` (stereo partly drawn) [Example 122, N-((R)-1-(3-(difluoromethyl)-2-fluorophenyl)ethyl)-1-(2,2-dimethyltetrahydro-2H-pyran-4-yl)-4-(((1R,5S,6s)-3-methyl-3-azabicyclo[3.1.0]hexan-6-yl)amino)-6-oxo-1,6-dihydropyridine-3-carboxamide], inhibition in assay [1] was half-maximal at 0.0174 µM (IC50). Further, the Kd on human SOS1 worked out at 0.009 µM.

`Cc1c([C@@H](C)NC(=O)c2cn(C3CCOCC3)c(=O)cc2NC2(C)CCN(C)CC2)cccc1C(F)(F)F` [Example 45, (R)-4-((1,4-dimethylpiperidin-4-yl)amino)-N-(1-(2-methyl-3-(trifluoromethyl)phenyl)ethyl)-6-oxo-1-(tetrahydro-2H-pyran-4-yl)-1,6-dihydropyridine-3-carboxamide] gave a 50% inhibitory concentration (IC50) in assay [1] of 0.0379 µM. For the same compound, the Kd at human SOS1 was 0.021 µM.

Turning to `Cc1c([C@@H](C)NC(=O)c2cn(C3CCOCC3)c(=O)cc2NCC2CN(C)C2)cccc1C(F)(F)F` [Example 8, (R)-N-(1-(2-methyl-3-(trifluoromethyl)phenyl)ethyl)-4-(((1-methylazetidin-3-yl)methyl)amino)-6-oxo-1-(tetrahydro-2H-pyran-4-yl)-1,6-dihydropyridine-3-carboxamide], in assay [1], half-maximal inhibition (IC50) was put at 0.0486 µM. Moreover, on human SOS1, the Kd was 0.012 µM.

For the compound `Cc1c([C@@H](C)NC(=O)c2cn(C3CCOCC3)c(=O)cc2N[C@@H]2CC[C@@H](O)C2)cccc1C(F)(F)F` [Example 14, 4-(((1R,3R)-3-hydroxycyclopentyl)amino)-N-((R)-1-(2-methyl-3-(trifluoromethyl)phenyl)ethyl)-6-oxo-1-(tetrahydro-2H-pyran-4-yl)-1,6-dihydropyridine-3-carboxamide], it took 0.225 µM to reach half-maximal inhibition in assay [1] (IC50). The Kd on human SOS1 stood at 0.103 µM.

In assay [1], `C[C@@H](NC(=O)c1cn(C2(C(F)F)CC2)c(=O)cc1NC[C@H]1CC2CCN1CC2)c1cccc(C(F)F)c1F` [Example 86, N-((R)-1-(3-(difluoromethyl)-2-fluorophenyl)ethyl)-1-(1-(difluoromethyl)cyclopropyl)-6-oxo-4-((((R)-quinuclidin-2-yl)methyl)amino)-1,6-dihydropyridine-3-carboxamide] gave an IC50 of 0.0731 µM. Also, the Kd at human SOS1 was 0.029 µM.

As to `C[C@@H](NC(=O)c1cn([C@@H]2CC23CC3)c(=O)cc1N[C@H]1[C@@H]2CN(C)C[C@@H]21)c1cccc(C(F)F)c1F` (single isomer, unassigned) [Example 116], half-maximal inhibition in assay [1] (IC50) required 0.0267 µM. In addition, at human SOS1, the Kd was determined as 0.011 µM.

Regarding `C[C@@H](NC(=O)c1cn([C@@H]2C[C@H]2C(F)F)c(=O)cc1N[C@H]1[C@@H]2CN(C)C[C@@H]21)c1cccc(C(F)F)c1F` [Example 114, N-((R)-1-(3-(difluoromethyl)-2-fluorophenyl)ethyl)-1-((1R,2R)-2-(difluoromethyl)cyclopropyl)-4-(((1R,5S,6s)-3-methyl-3-azabicyclo[3.1.0]hexan-6-yl)amino)-6-oxo-1,6-dihydropyridine-3-carboxamide], inhibition in assay [1] was half-maximal at 0.0211 µM (IC50). The equilibrium dissociation constant (Kd) at human SOS1 was determined as 0.013 µM.

`Cc1c([C@@H](C)NC(=O)c2cn(C3CCOCC3)c(=O)cc2NC2CC3(C2)CN(C)C3)cccc1C(F)(F)F` [Example 21, (R)-4-((2-methyl-2-azaspiro[3.3]heptan-6-yl)amino)-N-(1-(2-methyl-3-(trifluoromethyl)phenyl)ethyl)-6-oxo-1-(tetrahydro-2H-pyran-4-yl)-1,6-dihydropyridine-3-carboxamide] yielded a half-inhibitory concentration (IC50) in assay [1] of 0.0537 µM. Also, the Kd at human SOS1 stood at 0.017 µM.

Regarding `Cc1c([C@@H](C)NC(=O)c2cn(C3CCOCC3)c(=O)cc2NCCCN(C)C)cccc1C(F)(F)F` [Example 9, (R)-4-((3-(dimethylamino)propyl)amino) -N-(1-(2-methyl-3-(trifluoromethyl)phenyl)ethyl)-6-oxo-1-(tetrahydro-2H-pyran-4-yl)-1,6-dihydropyridine-3-carboxamide], in assay [1], the IC50 amounted to 0.039 µM. On human SOS1, the dissociation constant Kd was 0.017 µM.

With `Cc1c([C@@H](C)NC(=O)c2cn(C3CCOCC3)c(=O)cc2N[C@H]2[C@@H]3CN(C)C[C@@H]32)cccc1C(F)(F)F` [Example 26, N-((R)-1-(2-methyl-3-(trifluoromethyl)phenyl)ethyl)-4-(((1R,5S,6s)-3-methyl-3-azabicyclo[3.1.0]hexan-6-yl)amino)-6-oxo-1-(tetrahydro-2H-pyran-4-yl)-1,6-dihydropyridine-3-carboxamide], it took 0.0271 µM to reach half-maximal inhibition in assay [1] (IC50). For the same compound, the dissociation constant (Kd) at human SOS1 came to 0.011 µM.

In assay [1], `C[C@@H](NC(=O)c1cn(C2(C(F)F)CC2)c(=O)cc1N[C@H]1[C@@H]2CN(C)C[C@@H]21)c1cccc(C(C)(F)F)c1F` [Example 121, N-((R)-1-(3-(1,1-difluoroethyl)-2-fluorophenyl)ethyl)-1-(1-(difluoromethyl)cyclopropyl)-4-(((1R,5S,6s)-3-methyl-3-azabicyclo[3.1.0]hexan-6-yl)amino)-6-oxo-1,6-dihydropyridine-3-carboxamide] came in with a half-maximal inhibitory concentration (IC50) of 0.0289 µM. Further, the Kd on human SOS1 came to 0.021 µM.
